In patent US20240148821A1, “PHARMACEUTICAL USE OF CYCLIC PEPTIDE COMPOUND” (CHUGAI SEIYAKU KABUSHIKI KAISHA, priority 2021, published 2024) one finds IC50 data, which are given here for 13 molecules.

Numbered stars: 1 amine (or outer) side, 2 acyl side, 3 side chain; on linkers, the order of the positions; unused ones are H or OH. Bridge positions count the residues as written; N and C are the ends. Square brackets hold non-standard residues; d marks the D form. Peptide text beside a SMILES is read from it. * marks the point of attachment. hPhe(3,5-F2-4-CF3) = N[C@@H](CCc1cc(F)c(C(F)(F)F)c(F)c1)C(=O)O; hPhe(3-Cl-4-CF3) = N[C@@H](CCc1ccc(C(F)(F)F)c(Cl)c1)C(=O)O; hPhe(3-F,4-CF3) = N[C@@H](CCc1ccc(C(F)(F)F)c(F)c1)C(=O)O; NMePhe(4-CF3) = CN[C@@H](Cc1ccc(C(F)(F)F)cc1)C(=O)O; hPhe(4-CF3) = N[C@@H](CCc1ccc(C(F)(F)F)cc1)C(=O)O; X37 = CC(C)(C)NC(=O)COC[C@H](CC(=O)[*:1])N[*:2]; 3Oxa8azabicyclo(3.2.1)octane = C1CC2COCC1N2*; NMePhe(4-Cl) = CN[C@@H](Cc1ccc(Cl)cc1)C(=O)O; NMedβ3hAla = C[C@H](CC(=O)[*:2])N(C)[*:1]; NMeAla(cPent) = CN[C@@H](CC1CCCC1)C(=O)O; NMeGly(cPent) = CN[C@H](C(=O)O)C1CCCC1; NMeCha = CN[C@@H](CC1CCCCC1)C(=O)O; Hyp = O=C(O)[C@@H]1C[C@@H](O)CN1; NMeF = CN[C@@H](Cc1ccccc1)C(=O)O; NMeI = CC[C@H](C)[C@H](NC)C(=O)O; NMeD = CN[C@@H](CC(=O)O)C(=O)O; NMeL = CN[C@@H](CC(C)C)C(=O)O; NMeNva = CCC[C@H](NC)C(=O)O; NMeV = CN[C@H](C(=O)O)C(C)C; d(β3hA) = C[C@@H](N)CC(=O)O; NMeS = CN[C@@H](CO)C(=O)O; NMeA = CN[C@@H](C)C(=O)O; Piperidide = C1CCN(*)CC1; Pyrrolidide = C1CCN(*)C1; Ac5c = NC1(C(=O)O)CCCC1; Aze = O=C(O)[C@@H]1CCN1; Aib = CC(C)(N)C(=O)O; Isopentyl = CC(C)CC*; NEtG = CCNCC(=O)O; Sar = CNCC(=O)O; Propyl = CCC*

The target in the experiment is protein-protein interaction between Kras and SOS1 (biotin-tagged human Kras loaded with GDP, His-tagged human SOS1) (Homo sapiens (Human), UniProt P01116, G12D). Put plainly: Protein-protein interaction inhibition between Kras and SOS1 (KrasG12D-SOS PPI) using AlphaScreen.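 Note: kras produced in E. coli, Ni-coupled donor beads and streptavidin acceptor beads, excitation 680 nm with emission detected at 520–620 nm via singlet oxygen transfer.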 In kind it is biochemical. The following applies: AlphaScreen; biotin-tagged human Kras loaded with GDP, His-tagged human SOS1; read-out: KRAS G12D-SOS PPI IC50.
For `CC[C@H](C)[C@@H]1NC(=O)[C@H](C(C)C)N(C)C(=O)C[C@@H](COCC(=O)NC(C)(C)C)NC(=O)[C@H](CC(C)C)N(C)C(=O)C2(CCCC2)NC(=O)[C@H](CC(C)C)N(C)C(=O)[C@H](CCc2ccc(C(F)(F)F)cc2)NC(=O)CN(C)C(=O)[C@H](Cc2ccc(Cl)cc2)N(C)C(=O)CN(C)C(=O)CN(C)C1=O` [Compound 759] ([NMeV]I[Sar][Sar][NMePhe(4-Cl)][Sar][hPhe(4-CF3)][NMeL][Ac5c][NMeL]; linker N-C via X37), the IC50 (commonly the concentration at which inhibition is half-maximal) was found to be 0.16 µM. `CCCOC[C@H]1C(=O)N(C)CC(=O)N[C@@H](CCc2ccc(C(F)(F)F)c(F)c2)C(=O)N2CCC[C@H]2C(=O)NC2(CCCC2)C(=O)N(C)[C@@H]([C@@H](C)CC)C(=O)N(C)[C@H](C(=O)N2CCCCC2)CC(=O)N(C)[C@@H](CC(C)C)C(=O)N[C@@H]([C@@H](C)CC)C(=O)N(C)[C@@H](C)C(=O)N2CC[C@H]2C(=O)N1C` [Compound 236] ([NMeL]I[NMeA][Aze][NMeS](Propyl)[Sar][hPhe(3-F,4-CF3)]P[Ac5c][NMeI][NMeD]-Piperidide; lactam N-11): the IC50 is 0.0085 µM. As to `CC[C@H](C)[C@@H]1NC(=O)[C@H](CC(C)C)N(C)C(=O)C[C@@H](C)N(C)C(=O)[C@H](C2CCCC2)N(C)C(=O)C2(CCCC2)NC(=O)[C@@H]2CCCN2C(=O)[C@H](CCc2ccc(C(F)(F)F)c(F)c2)NC(=O)CN(C)C(=O)[C@H](C2CCCC2)N(C)C(=O)[C@@H]2CCN2C(=O)[C@H](C)N(C)C1=O` [Compound 386] (cyclo([Ac5c][NMeGly(cPent)][NMedβ3hAla][NMeL]I[NMeA][Aze][NMeGly(cPent)][Sar][hPhe(3-F,4-CF3)]P)), the IC50 came out at 0.01 µM.

On to `CCC[C@H]1C(=O)N2CC[C@H]2C(=O)N(C)[C@@H](CC2CCCCC2)C(=O)N(C)CC(=O)N[C@@H](CCc2ccc(C(F)(F)F)c(Cl)c2)C(=O)N2CCC[C@H]2C(=O)NC2(CCCC2)C(=O)N(C)[C@@H](C(C)C)C(=O)N(C)[C@H](C(=O)N2CCCCC2)CC(=O)N(C)[C@@H](CC(C)C)C(=O)N[C@@H]([C@@H](C)CC)C(=O)N1C` [Compound 1601] ([NMeL]I[NMeNva][Aze][NMeCha][Sar][hPhe(3-Cl-4-CF3)]P[Ac5c][NMeV][NMeD]-Piperidide; lactam N-11), for which the IC50 amounted to 0.022 µM. Regarding `CC[C@H](C)[C@@H]1NC(=O)[C@H](CC(C)C)N(C)C(=O)C[C@@H](COCC(=O)NC(C)(C)C)NC(=O)[C@H](CC(C)C)N(C)C(=O)C(C)(C)NC(=O)[C@H](CC(C)C)N(C)C(=O)[C@H](CCc2ccc(C(F)(F)F)cc2)NC(=O)CN(C)C(=O)[C@H](COCCC(C)C)N(C)C(=O)CN(C)C(=O)CN(C)C1=O` [Compound 1538] ([NMeL]I[Sar][Sar][NMeS](Isopentyl)[Sar][hPhe(4-CF3)][NMeL][Aib][NMeL]; linker N-C via X37), the IC50 was determined as 0.11 µM. Regarding `CCO[C@@H]1C[C@H]2C(=O)NC3(CCCC3)C(=O)N(C)[C@@H](C3CCCC3)C(=O)N(C)[C@H](C)CC(=O)N(C)[C@@H](CC(C)C)C(=O)N[C@@H]([C@@H](C)CC)C(=O)N(C)CC(=O)N(C)CC(=O)N(C)[C@@H](CC3CCCCC3)C(=O)N(C)CC(=O)N[C@@H](CCc3cc(F)c(C(F)(F)F)c(F)c3)C(=O)N2C1` [Compound 74] (cyclo([Ac5c][NMeGly(cPent)][NMedβ3hAla][NMeL]I[Sar][Sar][NMeCha][Sar][hPhe(3,5-F2-4-CF3)][Hyp](Et))), the IC50 is 0.0072 µM. As for `CC[C@H](C)[C@@H]1NC(=O)[C@H](CC(C)C)N(C)C(=O)C[C@@H](C)N(C)C(=O)[C@H]([C@@H](C)CC)N(C)C(=O)C2(CCCC2)NC(=O)[C@@H]2CCCN2C(=O)[C@H](CCc2ccc(C(F)(F)F)c(Cl)c2)NC(=O)CN(C)C(=O)[C@H](C2CCCC2)N(C)C(=O)[C@@H]2CCN2C(=O)[C@H](C)N(C)C1=O` [Compound 79] (cyclo([Ac5c][NMeI][NMedβ3hAla][NMeL]I[NMeA][Aze][NMeGly(cPent)][Sar][hPhe(3-Cl-4-CF3)]P)), the figure is 0.0093 µM; as for `CCCOC[C@H]1C(=O)N(CC)CC(=O)N[C@@H](CCc2ccc(C(F)(F)F)c(Cl)c2)C(=O)N2CCC[C@H]2C(=O)NC2(CCCC2)C(=O)N(C)[C@@H](C2CCCC2)C(=O)N(C)[C@H](C(=O)N2C3CCC2COC3)CC(=O)N(C)[C@@H](CC(C)C)C(=O)N[C@@H]([C@@H](C)CC)C(=O)N(C)[C@@H](C)C(=O)N2CC[C@H]2C(=O)N1C` [Compound 1338] ([NMeL]I[NMeA][Aze][NMeS](Propyl)[NEtG][hPhe(3-Cl-4-CF3)]P[Ac5c][NMeGly(cPent)][NMeD]-{3Oxa8azabicyclo(3.2.1)octane}; lactam N-11), 0.017 µM. For the molecule `CCCOC[C@H]1C(=O)N(C)CC(=O)N[C@@H](CCc2ccc(C(F)(F)F)c(Cl)c2)C(=O)N2CCC[C@H]2C(=O)NC2(CCCC2)C(=O)N(C)[C@@H](C2CCCC2)C(=O)N(C)[C@H](C)CC(=O)N(C)[C@@H](CC(C)C)C(=O)N[C@@H]([C@@H](C)CC)C(=O)N(C)[C@@H](C)C(=O)N2CC[C@H]2C(=O)N1C` [Compound 366] (cyclo([Ac5c][NMeGly(cPent)][NMedβ3hAla][NMeL]I[NMeA][Aze][NMeS](Propyl)[Sar][hPhe(3-Cl-4-CF3)]P)), the concentration for half-maximal inhibition (IC50) was 0.004 µM. `CC[C@H](C)[C@@H]1NC(=O)[C@H](CC(C)C)N(C)C(=O)C[C@@H](C(=O)N2CCCC2)N(C)C(=O)[C@H](C2CCCC2)N(C)C(=O)C2(CCCC2)NC(=O)[C@@H]2CCCN2C(=O)[C@H](CCc2ccc(C(F)(F)F)c(Cl)c2)NC(=O)CN(C)C(=O)[C@H](CC2CCCCC2)N(C)C(=O)[C@@H]2CCN2C(=O)[C@H](C)N(C)C1=O` [Compound 1679] ([NMeL]I[NMeA][Aze][NMeCha][Sar][hPhe(3-Cl-4-CF3)]P[Ac5c][NMeGly(cPent)][NMeD]-Pyrrolidide; lactam N-11): the IC50 stood at 0.00085 µM. Consider `CC[C@H](C)[C@@H]1NC(=O)[C@H](C)N(C)C(=O)C[C@@H](C)NC(=O)[C@H](CC(C)C)N(C)C(=O)[C@H](Cc2ccccc2)N(C)C(=O)[C@H](C)N(C)C(=O)[C@H](CCc2ccc(C(F)(F)F)cc2)NC(=O)CN(C)C(=O)[C@H](Cc2ccc(Cl)cc2)N(C)C(=O)CN(C)C(=O)CN(C)C1=O` [Compound 978] (cyclo(I[Sar][Sar][NMePhe(4-Cl)][Sar][hPhe(4-CF3)][NMeA][NMeF][NMeL][d(β3hA)][NMeA])), for which the IC50 was determined as 0.17 µM. Consider `CC[C@H](C)[C@@H]1NC(=O)[C@H](CC(C)C)N(C)C(=O)C[C@@H](C)NC(=O)[C@H](C2CCCC2)N(C)C(=O)C2(CCCC2)NC(=O)[C@@H]2CCCN2C(=O)[C@H](CCc2ccc(C(F)(F)F)c(Cl)c2)NC(=O)CN(C)C(=O)[C@H](Cc2ccc(C(F)(F)F)cc2)N(C)C(=O)[C@@H]2CCN2C(=O)[C@H](C)N(C)C1=O` [Compound 1475] (cyclo([Ac5c][NMeGly(cPent)][d(β3hA)][NMeL]I[NMeA][Aze][NMePhe(4-CF3)][Sar][hPhe(3-Cl-4-CF3)]P)), for which the IC50 is 0.0027 µM. To `CC[C@H](C)[C@@H]1NC(=O)[C@H](CC2CCCC2)N(C)C(=O)C[C@@H](C(=O)N2CCCCC2)N(C)C(=O)[C@H](C(C)C)N(C)C(=O)C2(CCCC2)NC(=O)[C@@H]2CCCN2C(=O)[C@H](CCc2ccc(C(F)(F)F)c(Cl)c2)NC(=O)CN(C)C(=O)[C@H](CC2CCCCC2)N(C)C(=O)[C@@H]2CCN2C(=O)[C@H](C)N(C)C1=O` [Compound 37] ([NMeAla(cPent)]I[NMeA][Aze][NMeCha][Sar][hPhe(3-Cl-4-CF3)]P[Ac5c][NMeV][NMeD]-Piperidide; lactam N-11) belongs 0.017 µM.
